# Article PMC11702208 (RSC Advances, 2025)
# Like-named read-outs stand apart in the source and are kept apart here.
# Columns and labels:
# CCRF-CEM = experiment: NCI cytotoxicity screen; format: cell-based, human; details: Homo sapiens
# [1] = test system: NSC lung cancer subpanel tumor cell lines; experiment: NCI cytotoxicity screen, subpanel; format: cell-based, human
# IGROV1 = experiment: NCI cytotoxicity screen; format: cell-based, human; details: Homo sapiens, IGROV-1
# OVCAR-3 = experiment: NCI cytotoxicity screen; format: cell-based, human; details: Homo sapiens, OVCAR-3
# EKVX = experiment: NCI cytotoxicity screen; format: cell-based, human; details: Homo sapiens
# MCF7 = experiment: NCI cytotoxicity screen; format: cell-based, human; details: Homo sapiens, MCF7
# NCI-H522 = experiment: NCI cytotoxicity screen; format: cell-based, human; details: Homo sapiens
# NCI/ADR-RES = experiment: NCI cytotoxicity screen; format: cell-based, human; details: Homo sapiens, five-dose
# HCT-15 = experiment: NCI cytotoxicity screen; format: cell-based, human; details: Homo sapiens
# A549/ATCC = experiment: NCI cytotoxicity screen; format: cell-based, human; details: Homo sapiens, A549
# HCT-116 = experiment: NCI cytotoxicity screen; format: cell-based, human; details: Homo sapiens
# NCI-H460 = experiment: NCI cytotoxicity screen; format: cell-based, human; details: Homo sapiens
# SNB-75 = experiment: NCI cytotoxicity screen; format: cell-based, human; details: Homo sapiens
# MOLT-4 = experiment: NCI cytotoxicity screen; format: cell-based, human; details: Homo sapiens
# U251 = experiment: NCI cytotoxicity screen; format: cell-based, human; details: Homo sapiens, U-251
# HL-60(TB) = experiment: cells; details: Homo sapiens
# RXF 393 = experiment: NCI cytotoxicity screen; format: cell-based, human; details: Homo sapiens
# DU-145 = experiment: NCI cytotoxicity screen; format: cell-based, human; details: Homo sapiens
# SF-539 = experiment: NCI cytotoxicity screen; format: cell-based, human; details: Homo sapiens
# [2] = test system: Breast cancer subpanel tumor cell lines; experiment: NCI cytotoxicity screen, subpanel; format: cell-based, human
# NCI-H23 = experiment: NCI cytotoxicity screen; format: cell-based, human; details: Homo sapiens
# T-47D = experiment: NCI cytotoxicity screen; format: cell-based, human; details: Homo sapiens, T47D
# [3] = test system: Colon cancer subpanel tumor cell lines; experiment: NCI cytotoxicity screen, subpanel; format: cell-based, human
# M14 = experiment: NCI cytotoxicity screen; format: cell-based, human; details: Homo sapiens
# ACHN = experiment: NCI cytotoxicity screen; format: cell-based, human; details: Homo sapiens
# SW-620 = experiment: NCI cytotoxicity screen; format: cell-based, human; details: Homo sapiens
# OVCAR-4 = experiment: NCI cytotoxicity screen; format: cell-based, human; details: Homo sapiens, OVCAR-4
# NCI-H226 = experiment: NCI cytotoxicity screen; format: cell-based, human; details: Homo sapiens
# SK-MEL-5 = experiment: NCI cytotoxicity screen; format: cell-based, human; details: Homo sapiens
# SK-OV-3 = experiment: NCI cytotoxicity screen; format: cell-based, human; details: Homo sapiens
# 786-0 = experiment: NCI cytotoxicity screen; format: cell-based, human; details: Homo sapiens
# HOP-92 = experiment: NCI cytotoxicity screen; format: cell-based, human; details: Homo sapiens
# RPMI-8226 = experiment: NCI cytotoxicity screen; format: cell-based, human; details: Homo sapiens
# KM12 = experiment: NCI cytotoxicity screen; format: cell-based, human; details: Homo sapiens, KM12
# SK-MEL-2 = experiment: NCI cytotoxicity screen; format: cell-based, human; details: Homo sapiens
# OVCAR-8 = experiment: NCI cytotoxicity screen; format: cell-based, human; details: Homo sapiens
# [4] = test system: Melanoma subpanel tumor cell lines; experiment: NCI cytotoxicity screen, subpanel; format: cell-based, human
# MDA-MB-231/ATCC = experiment: NCI cytotoxicity screen; format: cell-based, human; details: Homo sapiens, MDA-MB-231
# UACC-257 = experiment: NCI cytotoxicity screen; format: cell-based, human; details: Homo sapiens
# SK-MEL-28 = experiment: NCI cytotoxicity screen; format: cell-based, human; details: Homo sapiens
# 59 cancer cell lines = experiment: NCI cytotoxicity screen, full panel; format: cell-based, human; details: full panel mean-graph midpoint; for CC50: read-out: LC50 MG_MID
# LOX IMVI = experiment: NCI cytotoxicity screen; format: cell-based, human; details: Homo sapiens
# MDA-MB-435 = experiment: NCI cytotoxicity screen; format: cell-based, human; details: Homo sapiens
# HCC-2998 = experiment: NCI cytotoxicity screen; format: cell-based, human; details: Homo sapiens, HCC 2998
# [5] = subpanel value, NSC lung cancer
structure (smiles),measurement,setting,value
"C#Cc1cccc(Nc2ncnc3cc(OCCOC)c(OCCOC)cc23)c1 [Erlotinib, reference compound]",GI50,CCRF-CEM,15.8 µM
same,CC50,"[1]; Homo sapiens, read-out: LC50",97.7 µM
same,GI50,"[1]; Homo sapiens, subpanel value, NSC lung cancer",13.1 µM
same,GI50,[1]; [5],13.1 µM
same,TGI,[1]; [5],73.76 µM
same,GI50,IGROV1,0.25 µM
same,GI50,OVCAR-3,3.16 µM
same,GI50,EKVX,0.005 µM
same,GI50,MCF7,100 µM
same,GI50,NCI-H522,1 µM
same,GI50,NCI/ADR-RES,6.3 µM
same,GI50,HCT-15,3.16 µM
same,GI50,A549/ATCC,7.94 µM
same,GI50,HCT-116,5.01 µM
same,GI50,NCI-H460,5.01 µM
same,GI50,SNB-75,12.6 µM
same,GI50,MOLT-4,5.01 µM
same,GI50,U251,19.9 µM
same,GI50,HL-60(TB),5.01 µM
same,GI50,RXF 393,6.3 µM
same,GI50,DU-145,1.58 µM
same,GI50,SF-539,12.6 µM
same,CC50,"[2]; Homo sapiens, read-out: LC50",96.4 µM
same,GI50,"[2]; Homo sapiens, subpanel value, Breast cancer",24.7 µM
same,GI50,"[2]; subpanel value, Breast cancer",24.7 µM
same,TGI,"[2]; subpanel value, Breast cancer",70.53 µM
same,GI50,NCI-H23,19.9 µM
same,GI50,T-47D,3.16 µM
same,CC50,"[3]; Homo sapiens, read-out: LC50",> 100 µM
same,GI50,"[3]; Homo sapiens, subpanel value, Colon cancer",51.7 µM
same,GI50,"[3]; subpanel value, Colon cancer",51.7 µM
same,TGI,"[3]; subpanel value, Colon cancer",c (Compounds showed values > 100 μM)
same,GI50,M14,6.3 µM
same,GI50,ACHN,0.15 µM
same,GI50,SW-620,5.01 µM
same,GI50,OVCAR-4,19.9 µM
same,GI50,NCI-H226,6.3 µM
same,GI50,SK-MEL-5,15.8 µM
same,GI50,SK-OV-3,0.39 µM
same,GI50,786-0,5.01 µM
same,GI50,HOP-92,6.3 µM
same,GI50,RPMI-8226,5.01 µM
same,GI50,KM12,63.1 µM
same,GI50,SK-MEL-2,12.6 µM
same,GI50,OVCAR-8,7.94 µM
same,CC50,"[4]; Homo sapiens, read-out: LC50",93.3 µM
same,GI50,"[4]; Homo sapiens, subpanel value, Melanoma",23.7 µM
same,GI50,"[4]; subpanel value, Melanoma",23.7 µM
same,TGI,"[4]; subpanel value, Melanoma",77.89 µM
same,GI50,MDA-MB-231/ATCC,1.99 µM
same,GI50,UACC-257,100 µM
same,GI50,SK-MEL-28,31.6 µM
same,TGI MG_MID,59 cancer cell lines,66.3 µM
same,TGI MG_MID,59 cancer cell lines; listed as erlotinib,14.3 µM
same,GI50,59 cancer cell lines; read-out: GI50 MG_MID,7.68 µM
same,CC50,59 cancer cell lines,95.6 µM
same,CC50,59 cancer cell lines; listed as erlotinib,14.3 µM
same,GI50,LOX IMVI,5.01 µM
same,GI50,MDA-MB-435,15.8 µM
same,GI50,HCC-2998,79.3 µM
